The test system of one assay is SKOV-3 tumors. Put plainly: Tumor growth inhibition in vivo. As to conditions: nude mice, subcutaneous SKOV-3 tumors; GDC-941 orally, II-a-3 I.P., 50-100 mg/Kg/QD, 21 days. On the procedure:
Tumor Growth Inhibition In Vivo
The in vivo experiment was performed at Piedmont Research Center (Research Triangle Park, N.C.). Nude mice were implanted with SKOV-3 tumors subcutaneously. […] Dosing continued for 21 days. Tumor volume was measured twice a week.

The target of another assay is PI3Kα (Homo sapiens, UniProt P42336). Nature of the assay: Mass spectrometry of intact PI3Kα (Johns Hopkins), 3 hr incubation. Format: binding. Also noted: Johns Hopkins. As to conditions: 10× fold excess of compound, MALDI. On the procedure:
Mass Spectrometry for PI3K
Intact PI3Kα (Johns Hopkins) was incubated for 3 hr at a 10× fold excess of II-a-45 or II-a-49 to protein. Aliquots (3 μL) of the samples were diluted with 10 μL of 0.1% TFA prior to micro C4 ZipTipping directly onto the MALDI target using Sinapinic acid as the desorption matrix (10 mg/ml in 0.1% TFA:Acetonitrile 50:50).

For a further assay, the target named is T1, PI3Kα (p110α/p85α) (Homo sapiens, UniProt P42336).
T1 construct: purchased BPS Bioscience (San Diego, Calif.) or Millipore (Billerica, Mass.)
Put plainly: HTRF assay, potency against active PI3Kα. To be noted: HTRF; [ATP]=50 μM, [di-C8-PIP2]=10 μM; 30 min pre-incubation; read-out: PI3Kα Inhibition. Format: biochemical. In short, it runs like this:
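Active p110/p85α lipid kinase reactions were started with ATP and run 30-60 minutes at 25 °C, then stopped and developed with HTRF detection mix. HTRF ratio converted to % inhibition against ±enzyme controls; IC50 from log[inhibitor] vs response, variable slope.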
A general note: TR-FRET usually uses a lanthanide donor and a delayed reading to cut background.

Chain of PI3Kα (P42336 whole entry): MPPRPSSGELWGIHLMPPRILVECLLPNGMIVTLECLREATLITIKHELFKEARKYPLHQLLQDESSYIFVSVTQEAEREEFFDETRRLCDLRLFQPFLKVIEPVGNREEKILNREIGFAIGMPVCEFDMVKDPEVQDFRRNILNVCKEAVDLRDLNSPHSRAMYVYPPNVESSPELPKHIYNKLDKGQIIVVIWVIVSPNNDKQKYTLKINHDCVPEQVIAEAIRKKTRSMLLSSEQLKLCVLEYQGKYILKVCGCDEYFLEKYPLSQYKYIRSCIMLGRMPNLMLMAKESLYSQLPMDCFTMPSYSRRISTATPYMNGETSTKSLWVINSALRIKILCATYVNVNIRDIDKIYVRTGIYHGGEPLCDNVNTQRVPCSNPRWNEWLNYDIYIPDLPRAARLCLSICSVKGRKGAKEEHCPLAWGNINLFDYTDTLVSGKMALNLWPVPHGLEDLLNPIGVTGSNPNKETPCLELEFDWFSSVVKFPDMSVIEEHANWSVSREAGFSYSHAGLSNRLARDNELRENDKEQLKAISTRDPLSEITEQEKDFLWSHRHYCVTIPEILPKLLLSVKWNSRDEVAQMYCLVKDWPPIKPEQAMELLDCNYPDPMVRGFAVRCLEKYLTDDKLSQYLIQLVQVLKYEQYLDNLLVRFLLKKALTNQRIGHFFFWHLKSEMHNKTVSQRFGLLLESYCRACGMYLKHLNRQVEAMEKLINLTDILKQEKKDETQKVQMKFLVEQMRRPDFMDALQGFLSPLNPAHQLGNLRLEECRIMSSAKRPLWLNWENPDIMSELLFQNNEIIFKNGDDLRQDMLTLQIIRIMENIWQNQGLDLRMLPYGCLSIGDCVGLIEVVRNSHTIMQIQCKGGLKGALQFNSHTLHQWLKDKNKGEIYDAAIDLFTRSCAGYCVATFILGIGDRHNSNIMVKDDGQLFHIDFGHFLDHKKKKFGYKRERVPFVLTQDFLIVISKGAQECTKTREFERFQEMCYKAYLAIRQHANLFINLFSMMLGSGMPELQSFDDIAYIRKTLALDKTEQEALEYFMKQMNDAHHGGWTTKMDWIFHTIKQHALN
Chain of PI3Kα (P27986 322-600 partner limits assumed): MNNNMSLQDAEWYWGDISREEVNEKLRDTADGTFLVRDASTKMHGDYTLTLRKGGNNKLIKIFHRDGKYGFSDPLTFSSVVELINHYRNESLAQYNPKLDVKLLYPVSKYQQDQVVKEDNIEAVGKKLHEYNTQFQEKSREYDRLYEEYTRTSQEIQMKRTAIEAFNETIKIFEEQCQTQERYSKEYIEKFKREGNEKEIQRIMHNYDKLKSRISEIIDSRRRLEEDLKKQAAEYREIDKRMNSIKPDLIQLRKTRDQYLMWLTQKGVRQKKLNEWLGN
T1 sequence (P42336 whole entry): as the sequence (P42336 whole entry) above
T1 sequence (P27986 whole entry partner): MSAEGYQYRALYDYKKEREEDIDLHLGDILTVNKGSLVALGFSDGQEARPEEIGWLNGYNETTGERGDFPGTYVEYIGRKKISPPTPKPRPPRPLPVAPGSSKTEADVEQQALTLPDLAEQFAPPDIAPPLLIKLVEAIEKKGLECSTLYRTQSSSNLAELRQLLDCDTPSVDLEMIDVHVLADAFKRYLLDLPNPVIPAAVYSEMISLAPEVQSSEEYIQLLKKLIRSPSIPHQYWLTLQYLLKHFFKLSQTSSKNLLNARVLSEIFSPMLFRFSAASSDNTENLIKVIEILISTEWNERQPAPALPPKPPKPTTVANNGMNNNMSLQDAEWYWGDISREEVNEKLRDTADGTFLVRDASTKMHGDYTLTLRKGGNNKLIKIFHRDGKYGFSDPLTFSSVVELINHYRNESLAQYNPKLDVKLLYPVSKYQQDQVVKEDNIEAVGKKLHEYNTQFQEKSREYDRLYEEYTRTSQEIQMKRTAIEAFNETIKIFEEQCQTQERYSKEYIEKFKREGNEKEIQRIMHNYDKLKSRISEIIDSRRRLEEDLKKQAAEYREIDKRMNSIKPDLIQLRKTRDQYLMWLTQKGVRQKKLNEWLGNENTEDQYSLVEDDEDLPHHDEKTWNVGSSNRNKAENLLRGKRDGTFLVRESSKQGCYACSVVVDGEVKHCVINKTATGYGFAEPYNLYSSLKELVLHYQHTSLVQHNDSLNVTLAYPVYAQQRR

Turning to `CC(C)=CC(=O)CCC(=O)N1CCN(Cc2cc3nc(-c4cccc5[nH]ncc45)nc(N4CCOCC4)c3s2)CC1` [II-a-3, 1-(4-((2-(1H-indazol-4-yl)-4-morpholinothieno[3,2-d]pyrimidin-6-yl)methyl)piperazin-1-yl)-6-methylhept-5-ene-1,4-dione], the tumor growth entry in the assay with SKOV-3 tumors is “Inhibition of tumor growth”.

Consider `C/C=C/C(=O)CCC(=O)N1CCN(Cc2cc3nc(-c4cccc5[nH]ncc45)nc(N4CCOCC4)c3s2)CC1` [II-a-36, (E)-1-(4-((2-(1H-indazol-4-yl)-4-morpholinothieno[3,2-d]pyrimidin-6-yl)methyl)piperazin-1-yl)hept-5-ene-1,4-dione], for which, at PI3Kα, the “covalent modification of PI3Kα” value is “completely modify”. For the same compound, the IC50 at PI3Kα (p110α/p85α) is less than 10 nM.

Source of the values: patent US20110230476A1, “PI3 KINASE INHIBITORS AND USES THEREOF” (AVILA THERAPEUTICS, INC., priority 2009, published 2011).
